Experimental data taken from PubChem BioAssay (NCI).
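Following 48 hours of exposure in 96-well plates, responses at five concentrations were used to interpolate endpoints linearly. TGI is the concentration that stops growth completely.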

Tests used:
Test in all cases: DTP human tumour cell line panel, 48 h
DMS 114 small cell lung = system: DMS 114 small cell lung
SNB-78 CNS = system: SNB-78 CNS
KM20L2 colon = system: KM20L2 colon
HOP-18 NSCLC = system: HOP-18 NSCLC
DMS 273 small cell lung = system: DMS 273 small cell lung
XF 498 CNS = system: XF 498 CNS
LXFL 529 NSCLC = system: LXFL 529 NSCLC

## O=C(Nc1ccc(Cl)cc1)c1cccc([N+](=O)[O-])c1O
DMS 114 small cell lung
  TGI: 14.8 µM
SNB-78 CNS
  TGI: > 37.5 µM
KM20L2 colon
  TGI: 98.5 µM
HOP-18 NSCLC
  TGI: > 100 µM
DMS 273 small cell lung
  TGI: 23.3 µM
XF 498 CNS
  TGI: 8.31 µM
LXFL 529 NSCLC
  TGI: 39.8 µM
